Patent US11795378B2, “Iron control composition, make, and use in carbonate stimulation” (King Fahd University of Petroleum and Minerals, priority 2019, dated 2023)

Columns and labels:
[1] = Solubility and stability test of iron in concentrated HCl chelating agent formulations; assay type: physicochemical; settings: 5 wt. % single chelating agent, 72° F. (22.2° C.)
Experimental: The solubility test was conducted at varying HCl and chelating agent concentrations. During the solubility test the concentration of HCl was set to either 20 wt. % (low) or 28 wt. % (high) concentration.
Each chelating agent was used alone with varied concentrations ranging from 1 to 10 wt %.
To the evaluate the capability of the generated formulation to sustain the iron in the solution without precipitation, 3000 ppm of iron was dissolved in the respective formulations, and, after that, the stability of the formulation as function of time was evaluated.
The effect of the pH on the performance of exemplary inventive formulations was evaluated by repeating the solubility and stability tests at varied pH values.

[2] = 5% chelating agent, 3000 ppm ferric ions; cited from earlier work
[3] = 20 wt. % HCl, 3000 ppm iron, 96 hours
[4] = 28 wt. % HCl at pH 5, 3000 ppm ferric ions, after 96 hours

Structure (SMILES) | iron precipitation during stability evaluation [1, 3] | iron precipitation during stability evaluation [1, 4] | pH up to which ferric ions are kept in solution [2]
O=C(O)CC[C@@H](C(=O)O)N(CC(=O)O)CC(=O)O [GLDA, glutamic acid N,N-diacetic acid] | no precipitation | precipitation | less than 3.0
O=C(O)CN(CCO)CCN(CC(=O)O)CC(=O)O [HEDTA, hydroxyethyl ethylenediamine triacetic acid] | no precipitation | precipitation | –
